PubChem BioAssay (NCI)
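Five concentrations, 48 hours, 96-well plates. GI50 is the concentration that inhibits growth by half. TGI marks complete inhibition of growth.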

How the values were obtained:
Assay in all cases: DTP human tumour cell line panel, 48 h
SK-OV-3 ovarian = system: SK-OV-3 ovarian
PC-3 prostate = system: PC-3 prostate
CCRF-CEM leukemia = system: CCRF-CEM leukemia
SK-MEL-2 melanoma = system: SK-MEL-2 melanoma
OVCAR-4 ovarian = system: OVCAR-4 ovarian
HCT-116 colon = system: HCT-116 colon
A549 NSCLC = system: A549 NSCLC
SK-MEL-28 melanoma = system: SK-MEL-28 melanoma
HOP-62 NSCLC = system: HOP-62 NSCLC
COLO 205 colon = system: COLO 205 colon

| SMILES | TGI (SK-OV-3 ovarian) [µM] | TGI (PC-3 prostate) [µM] | TGI (CCRF-CEM leukemia) [µM] | TGI (SK-MEL-2 melanoma) [µM] | TGI (OVCAR-4 ovarian) [µM] | TGI (HCT-116 colon) [µM] | TGI (A549 NSCLC) [µM] | TGI (SK-MEL-28 melanoma) [µM] | TGI (HOP-62 NSCLC) [µM] | TGI (COLO 205 colon) [µM] | GI50 (HCT-116 colon) [µM] |
| --- | --- | --- | --- | --- | --- | --- | --- | --- | --- | --- | --- |
| COC(=O)C1=C(C(=O)OC)SC2(S1)C(C(=O)OC)=C(C(=O)OC)Sc1c2ssc1=O | 24.8 | 3.75 | 0.307 | 4.1 | 2.79 | 1.78 | 31 | 3.26 | 4.53 | 2.08 |  |
| CC(=O)OC1CC[C@@]2(C)C(=CC[C@@H]3[C@@H]2CC[C@]2(C)Nc4c(cnn4-c4ccc(F)cc4)C[C@@H]32)C1 (stereo partly specified) | > 100 | > 100 | > 100 | > 73.6 | > 100 | > 50.5 | > 100 | > 100 | 17.8 | > 78.7 |  |
| COc1cccc2c1CCc1sc(CN3CCN(C)CC3)nc1-2 | > 100 | > 100 | 53.5 | > 100 | > 100 | > 100 | > 100 | > 100 | > 100 | > 100 |  |
| CC(=O)[C@H]1CC[C@@H]2[C@]1(C)CC=C1[C@]23C=C[C@]2(C[C@@H](O)CC[C@]12C)C(C(=O)O)C3C(=O)O (stereo partly specified) | > 100 | > 100 | > 100 | > 100 | > 100 | > 100 | > 100 | > 100 | > 100 | > 100 |  |
| O=C(NNC(=O)c1ccccc1O)c1cccs1 | > 100 | > 100 | > 100 | > 100 | > 100 | > 100 | > 100 | > 100 | > 100 | > 100 |  |
| O=S1(=O)OCCOS(=O)(=O)C1C1c2ccccc2-c2ccccc21 | > 100 | > 100 | 89.4 | > 100 | 52.4 | > 100 | > 100 | > 100 | > 100 | > 100 |  |
| CC(NC(=O)C(NC(=O)C(NC(=O)C(F)(F)F)C(C)C)C(C)C)C(=O)Oc1c(Cl)c(Cl)c(Cl)c(Cl)c1Cl (stereo unspecified) | > 100 | > 100 | > 100 | > 100 | > 100 | > 100 | > 100 | > 100 | > 100 | > 100 |  |
| Cc1[nH]c(-c2ccccc2)c(O)c1C(=O)OC1CC(C)CCC1C(C)C (stereo unspecified) | 29.1 | 26.7 | 31 | 28.2 | 27.4 | 28.1 | 26.2 | 29.8 | 28.6 | 27.9 |  |
| O=C1C(Nc2ccc(S(=O)(=O)Nc3cnc4ccccc4n3)cc2)=CC(=Nc2ccc(S(=O)(=O)Nc3cnc4ccccc4n3)cc2)c2ccccc21 | 31 | 52.9 | 57 | 36.3 | 47.2 | 32.9 | 38 | 33 | 34.8 | 33.1 |  |
| CCN1CCC(O)(/C=C/c2ccc(Cl)c(Cl)c2)C(C(=O)/C=C/c2ccc(Cl)c(Cl)c2)C1 (stereo unspecified) | 4.61 | 1.05 | 1.13 | 3.66 | 2.21 | 1.73 | 1.72 | 7.97 | 2.48 | 1.74 |  |
| CN1C(=O)c2c(c3c4ccccc4n(C)c3c3c2c2ccccc2n3C)C1=O | > 100 | > 100 | > 100 | > 100 | > 100 | > 100 | > 100 | > 100 | > 100 | > 100 |  |
| c1ccc(C(OCCN2CC3CCC(C2)N3)c2ccccc2)cc1 | > 100 | > 100 | > 100 | > 100 | > 100 | > 100 | > 100 | > 100 | > 100 | 42.2 |  |
| Cn1c(=Nc2ccccc2[N+](=O)[O-])sc2ccccc21 | 97.2 | > 100 | > 100 | > 100 | 86.9 | > 100 | > 100 | > 100 | 48.3 | > 100 |  |
| CCc1c[n+]2c(cc1C1=CN3c4ccccc4[C@]45CCN6C/C(=C/CO)[C@H](C[C@H]64)[C@@H]([C@@H]1O)[C@H]35)-c1[nH]c3ccccc3c1CC2 | > 50 | > 50 | > 50 | > 50 | > 50 | > 50 | > 50 | > 50 | > 50 | > 50 |  |
| CCCCCCCCC/C=C1/CC(CO)(COC(=O)C2CCCCC2)OC1=O (stereo unspecified) | > 100 | > 100 | > 100 | > 100 | > 100 | > 100 | > 100 | > 100 | > 100 | > 100 |  |
| COc1cc2c(cc1OC)C/C(=N\O)c1cc(OC)c(OC)cc1/C=C\2 | > 85.3 | > 100 | > 100 | 44.6 | > 100 | > 39.2 | > 100 | > 45 | > 27 | 28.7 |  |
| Cc1ccnc2[nH]c(-c3ccc(Cl)cc3)cc(=O)c12 | > 62.1 | > 100 | > 100 | > 100 | > 100 | > 100 | > 100 | > 100 | > 93.5 | > 21.9 |  |
| CCc1cc2c(cc1O)CC[C@@H]1[C@@H]2CC[C@]2(C)[C@@H](O)CC[C@@H]12 | 39.6 | 37.3 | 15 | 25 | 27.3 | 13.4 | 21.3 | 16.3 | 19.8 | 31.9 | 3.52 |
| O=C(O)Cn1cnc2c(=O)[nH]c(Nc3ccccc3)nc21 | > 100 | > 100 | > 100 | > 100 | > 100 | > 100 | > 100 | > 100 | > 100 | > 100 |  |
| OC[C@H](O)[C@@H](OCc1ccccc1)[C@H](NCc1ccccc1)c1cccs1 | > 100 | > 100 | > 100 | > 100 | > 100 | > 100 | > 100 | > 100 | > 100 | > 100 |  |
| COC(=O)[C@@]1(Cc2ccc(OC(C)=O)cc2)Cc2cc3ccccc3n2N1 | > 100 | > 100 | > 100 | 52.2 | > 100 | > 100 | > 100 | > 100 | > 100 | 92.7 |  |
| CCOP(=O)(OCC)C(Cc1cn(S(=O)(=O)c2ccc(C)cc2)cn1)C(=O)O (stereo unspecified) | > 100 | > 100 | > 100 | > 100 | > 100 | > 100 | > 100 | > 100 | > 100 | > 100 |  |
| CN(CCCNC(=O)c1[nH]nc2c1ccc1ccccc12)CCCNC(=O)c1[nH]nc2c1ccc1ccccc12 | 34.2 | 27.9 | 29.4 | 23.6 | 37.4 | 25.2 | 37.6 | 4.54 | 34.6 | 10.9 |  |
| O=c1oc2c(Cl)cc(Cl)cc2cc1-c1cn2c(n1)sc1ccccc12 | > 100 | > 100 | 55.6 | > 100 | > 100 | > 100 | > 100 | > 100 | > 100 | > 100 |  |
| C[C@]12CC[C@@H]3c4cc(C=O)c(OCc5ccccc5)cc4CC[C@H]3[C@@H]1CCC2OCc1ccccc1 (stereo partly specified) | > 100 | > 100 | > 100 | > 100 | > 100 | > 100 | > 100 | > 100 | > 100 | > 100 |  |
| COc1cc([C@@H]2c3cc4c(cc3[C@H](OC3OC5COC(C(C)C)OC5C(O)C3O)C3COC(=O)[C@@H]32)OCO4)cc(OC)c1OC (stereo partly specified) | > 100 | 22.4 | > 29.6 | 25.4 | > 100 | 7.8 | > 100 | > 100 | 25.4 | 14.6 |  |
| COC(=O)c1cc(NC(=O)Cn2c3ccccc3c3ccccc32)cn1C | 89.2 | > 100 | > 100 | > 100 | 74.9 | > 100 | > 100 | > 100 | 50.6 | > 100 |  |
| CSCCC(NOC(=O)Cc1ccccc1)P(=O)(O)c1ccccc1 (stereo unspecified) | > 100 | > 100 | > 100 | > 100 | > 100 | > 100 | > 100 | > 100 | > 100 | > 100 |  |
| Cc1cc2nc3c(C)c4ccccc4c(C)n3c2cc1C | > 10 | > 10 | > 10 | > 10 | > 10 | 3.96 | > 10 | 9 | > 10 | > 10 |  |
